ChEMBL document CHEMBL1138423, “TOMOCOMD-CARDD descriptors-based virtual screening of tyrosinase inhibitors: evaluation of different classification model combinations using bond-based linear indices” (Bioorg Med Chem, 2007)

target: T1, Tyrosinase (Agaricus bisporus, UniProt O42713); experiment: Inhibition of mushroom tyrosinase after 10 mins
T1 sequence (O42713 whole entry): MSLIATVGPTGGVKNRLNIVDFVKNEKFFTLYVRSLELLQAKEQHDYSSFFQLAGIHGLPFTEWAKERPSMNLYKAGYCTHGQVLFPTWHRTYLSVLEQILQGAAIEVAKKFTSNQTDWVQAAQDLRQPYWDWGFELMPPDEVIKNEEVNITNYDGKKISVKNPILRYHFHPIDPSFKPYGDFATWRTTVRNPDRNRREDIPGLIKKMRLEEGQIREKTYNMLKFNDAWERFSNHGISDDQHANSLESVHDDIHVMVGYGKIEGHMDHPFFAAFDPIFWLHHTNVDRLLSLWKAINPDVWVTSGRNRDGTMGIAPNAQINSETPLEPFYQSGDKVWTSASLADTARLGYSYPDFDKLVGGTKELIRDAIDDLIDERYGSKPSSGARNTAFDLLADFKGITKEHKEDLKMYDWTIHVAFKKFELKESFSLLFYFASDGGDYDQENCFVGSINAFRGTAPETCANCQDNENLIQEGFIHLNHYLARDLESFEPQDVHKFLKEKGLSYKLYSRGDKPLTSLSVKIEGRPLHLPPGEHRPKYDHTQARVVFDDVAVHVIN

Row | SMILES | IC50 [µM]
1 | CC[C@]1(O)CC[C@H]2[C@@H]3CCC4=CC(=O)C=C[C@]4(C)[C@H]3CC[C@@]21C | 3.46
2 | CC[C@]1(O)CC[C@H]2[C@@H]3CCC4=CC(=O)CC[C@]4(C)[C@H]3[C@H](O)C[C@@]21C | 1.72
3 | CC[C@]1(O)CC[C@H]2[C@@H]3CCC4=CC(=O)CC[C@]4(C)[C@H]3CC[C@@]21C | 1.53
4 | C#CC1(O)CC[C@H]2[C@@H]3CCC4=CC(=O)C=C[C@]4(C)[C@H]3CC[C@@]21C (single isomer, unassigned) | 7.89
5 | C#CC1(O)CC[C@H]2[C@@H]3CCC4=CC(=O)CC[C@]4(C)[C@H]3[C@H](O)C[C@@]21C (single isomer, unassigned) | 5.95
6 | C#CC1(O)CC[C@H]2[C@@H]3CCC4=CC(=O)CC[C@]4(C)[C@H]3CC[C@@]21C (single isomer, unassigned) [ETHISTERONE] | 2.61
